Assays:
[1] = cited from earlier work
[2] = system: caspase-1 (inflammasome activation) in urothelial cells; assay: Caspase-1 activity in isolated mouse urothelial cells treated with diabetic DAMPS in vitro; settings: DAMP 24 h (ATP 1 h)
[3] = system: caspase-1 activation in urothelial cells; assay: Caspase-1 assay in isolated rat urothelial cells treated with stone DAMPs, with or without inhibitors; settings: for maximal response of caspase-1 activation: normalized to 1.25 mM ATP 1 h; for concentration sufficient to completely suppress caspase-1 activation in MSU-treated cells: 1.25 μg/mL MSU 24 h
Procedure: Briefly, rats were sacrificed and the bladders removed and placed in sterile PBS. Bladders were then inverted over an 18-gauge blunt tip needle, inflated with PBS, and a purse string suture was used to tie off the bladder. The inflated bladder was then submerged in Collagenase P (1 mg/ml in complete media) and shaken for 1 hour at 37° C. […] Media was removed and replaced with fresh media (90 μL for agonist studies, 80 μL for inhibitor studies) just prior to the start of experimental treatments.
Using PBS (for CPPD) or complete media (for MSU), 1:2 serial dilutions were prepared. Wells were then treated with 10 μL of the appropriate dilution of stone DAMP for a final volume of 100 μL. After treatment, cells were incubated for another 24 hours at 37° C.
For inhibition response studies, the general ROS scavenger N-acetylcysteine was prepared to the stock concentration of 5 mM for MSU treatment and to 50 mM for CPPD treatment. Prior to treatment, the stock concentration of NAC was buffered to pH 7.2. […] Using complete media for NAC and PBS for Verapamil, 1:2 serial dilutions were prepared. Cells were treated with 10 μL of NAC or Verapamil and incubated at 37° C. for 1 or 4 hours, respectively. […] Plates were then incubated for an additional 24 hours at 37° C.
Briefly, media was removed and cells lysed in 50 μl lysis buffer (10 mM MgCl2 and 0.25% Igepal CA-630) for 5 minutes. An additional 50 μL of storage buffer (40 mM HEPES (pH 7.4), 20 mM NaCl, 2 mM EDTA and 20% glycerol) was added, and the plates frozen at −80° C. until use (>30 minutes). […] Plates were then incubated in the dark for 1 hour at 37° C. with mild shaking. Florescence was then measured (excitation 400 nm, emission 505 nm).

BOO [4] = assay: Open field assay after BOO; format: in vivo, rat; settings: 12 weeks of BOO; glyburide pellet; fluoxetine ≈20 mg/kg/day in drinking water, last 4 weeks
BOO [5] = assay: Sucrose preference assay after BOO; format: in vivo, rat; settings: 12 weeks of BOO; glyburide pellet; fluoxetine ≈20 mg/kg/day in drinking water, last 4 weeks
BOO [6] = assay: Density of Ki-67+ proliferating cells in hippocampus after BOO; format: in vivo, rat; settings: 12 weeks of BOO; glyburide pellet
Procedure: (§1) Sides were alternated thereafter.
(§2) Brains were fixed (10% neutral buffered formalin; 48 h, rt) and grossly cut (coronally) to the hippocampus before being embedded in paraffin with the plane of the hippocampus on the block face. Citrate antigen retrieval was used prior to staining 10 μm coronal sections with anti-IbA1/AIF1 (1:500) (NBP2-19019; Novus Biologicals, Centennial, Colo.) or Anti-Ki67 (1:500) (ab15580; Abcam, Cambridge, Mass.) via standardard methodology. IbA1 was visualized via HRP development (Vectastain ABC Kit; Vector, Burlingame, Calif.), biotinylated secondary antibody provided). Ki-67 was visualized using a goat anti-rabbit secondary antibody conjugated to Alexa Fluor 488 (111-545-144; Jackson ImmunoResearch Labs, West Grove, Pa.). […]
(§3) A Zeiss Axio Imager 2 microscope (Zeiss, Oberkochen, Germany) running Zen software (Zeiss) using the tiling and stitching feature was used to scan one entire hemisphere. […] Slides were quantitated by a researcher blinded to the groups. For microglia, we demarcated 600,000-700,000 μm^2 of the fascia dentata, counted the number of black/brown spots with two or greater associated tendrils and calculated microglial density. For Ki-67^+ cells we demarcated the entire dentate gyrus, CA1, CA2 and CA3 regions, quantitated nuclei (DAPI^+) that were Ki-67^+ (green florescence) and calculated the density.

[7] = cited from earlier work; remark: listed apart in the source
BOO [8] = assay: Density of activated microglia (IbA1/AIF1) in hippocampus after BOO; format: in vivo, rat; settings: 12 weeks of BOO; glyburide pellet
Procedure: as §1, §2, §3

BOO [9] = assay: Evans blue assay in hippocampus after BOO; format: in vivo, rat
Procedure: as §1
Rats were weighed and then injected (i.v. 3 ml/kg) with 2% Evan's blue dye in sterile saline by an investigator blinded to the groups (Belayev et al. (1996) Brain Res 739: 88-96). After one hour, rats were euthanized and transcardially perfused with cold PBS to remove intravascular dye. The brain was isolated and the hippocampus dissected, weighed and placed into formamide (0.25 ml) overnight (56° C.). Absorbance (620 nm) was measured and compared to a standard curve to calculate pg Evans blue/μg tissue.

BOO [10] = assay: Bladder weight after bladder outlet obstruction (BOO); settings: 12 weeks of BOO; glyburide 50 mg 21-day slow release pellet
Procedure: For most studies rats were assigned to 4 groups; 1) Control, 2) Sham, 3) BOO or 4) BOO+glyburide (Gly). […] For Sham and all BOO groups, animals were anesthetized [ketamine hydrochloride (90 mg/kg), xylazine (10 mg/kg); i.p.] and a 1 mm o.d. catheter (P50 tubing) inserted transurethrally. BOO was created by urethral ligation over a 1 mm catheter. A 5-0 silk suture was passed around the urethra and tied securely for BOO and loosely for Sham. The catheter was removed and the abdominal wall closed. For BOO+Gly, a subcutaneous pocket was made on the side of the neck and a single 50 mg, 21-day slow release pellet (Innovative Research of America, Sarasota, Fla.) inserted and the incision closed. A new pellet was placed (contralateral side) after 21 days. Sides were alternated thereafter.
Bladders from the various groups indicated in FIG. 18 were weighed when they were removed for the various endpoints in this experiment.

For `O=S(=O)([O-])CCS.[Na+]` [Mesna, 2-mercaptoethane sulfonate sodium], the “effects on bone marrow, hepatic, renal or CNS function” value ([1]; doses up to 100 mg/kg) is given as “no apparent effects on bone marrow, hepatic, renal or CNS function” and the fate in plasma ([1]; only a very small portion remaining in circulation) is given as “rapid oxidation in plasma”.

In the case of `CN(N=O)C(=O)N[C@H]1C(O)O[C@H](CO)[C@@H](O)[C@@H]1O` (mixture of isomers) [streptozotocin], the “caspase-1 activity (inflammasome activation)” value (“caspase-1 activity” below) [2] is reported as “directly activates the inflammasome”.

In the case of `O=c1[nH]c(=O)c2[nH]c([O-])nc2[nH]1.[Na+]` [MSU, monosodium urate], the “EC50 of caspase-1 activation” value ([3]; 24 h treatment of rat urothelial cells) is reported as 0.156 mg/L, the “maximal response of caspase-1 activation” value ([3]; 24 h treatment) is reported as 25 % of the ATP response and the “caspase-1 activity” value [2] is reported as “activation of caspase-1”.

For AGES, the “caspase-1 activity” value [2] was “activation of caspase-1”.

With `CNCCC(Oc1ccc(C(F)(F)F)cc1)c1ccccc1` (stereo not shown) [fluoxetine] the “open field: time exploring the middle of the field” value (BOO [4]) was “restored the exploratory behavior of these rats back to levels not statistically different from control” and the sucrose preference (BOO [5]) was “restored sucrose preference back to levels not statistically different from control”.

In the case of `Nc1ncnc2c1ncn2[C@@H]1O[C@H](COP(=O)(O)OP(=O)(O)OP(=O)(O)O)[C@@H](O)[C@H]1O` [ATP], the “caspase-1 activity” value [2] is reported as “elicited a classic dose response”.

With `O=C([O-])C(=O)[O-].[Ca+2]` [calcium oxalate] the “caspase-1 activation in urothelial cells” value ([3]; 24 h treatment) was “activates caspase-1 in urothelial cells in a dose-dependent manner”.

With `CCCCCCCCCCCCC/C=C/[C@@H](O)[C@H](CO)NC(=O)CCCCC` [C6-ceramide, N-hexanoyl-D-erythro-sphingosine] the “caspase-1 activity” value [2] was “activation of caspase-1”.

With `CC(=O)N[C@@H](CS)C(=O)O` [NAC, N-acetylcysteine] the “concentration sufficient to completely suppress caspase-1 activation in MSU-treated cells” value [3] was 500 µM and the “concentration sufficient to completely suppress caspase-1 activation in CPPD-treated cells” value ([3]; 62.5 μg/mL CPPD 24 h, NAC 1 h before) was 5 mM.

For `COc1ccc(CCN(C)CCCC(C#N)(c2ccc(OC)c(OC)c2)C(C)C)cc1OC` (stereo not shown) [Verapamil], the “concentration sufficient to completely suppress caspase-1 activation in MSU-treated cells” value [3] was 150 µM and the IC50 ([3]; Rattus norvegicus, read-out: IC50 of caspase-1 activation in CPPD-treated cells) was 100 µM.

In the case of `O=P([O-])([O-])OP(=O)([O-])[O-].[Ca+2].[Ca+2]` [CPPD, calcium pyrophosphate], the “maximal response of caspase-1 activation” value ([3]; 24 h treatment) is reported as “approximately 50 % of the ATP response” and the EC50 ([3]; Rattus norvegicus, 24 h, read-out: EC50 of caspase-1 activation) is reported as 62.5 mg/L.

In the case of `COc1ccc(Cl)cc1C(=O)NCCc1ccc(S(=O)(=O)NC(=O)NC2CCCCC2)cc1` [GLY, glyburide], the “concentration of proliferating cells (Ki-67+) in the hippocampus” value (BOO [6]) is given as “blocked”, the “crossing of the blood brain barrier” value ([7]; intact barrier) is given as “does not cross the blood brain barrier” and the “binding in the serum” value ([7]; serum) is given as “mostly albumin-bound”. For the same molecule, the “open field: time exploring the middle of the field” value (BOO [4]) was “restored this behavior”, the “density of activated microglia in the hippocampus” value (BOO [8]) was “reduced back to control levels” and the “Evan's blue dye extravasation in the hippocampus” value (BOO [9]; 6 weeks of BOO, glyburide treatment) was “blocked”. The “leakage of Evan's blue into the hippocampus” value (BOO [9]; 12 weeks of BOO, glyburide pellet) was “reduced back to control levels”, the bladder weight (BOO [10]) was “suppresses this increase” and the sucrose preference (BOO [5]) was “restored”.

B1: HMGB-1: high mobility group box 1 protein (ProSci), diabetic DAMP (protein, UniProt P09429 1-215, looked up)
High mobility group protein B1: MGKGDPKKPRGKMSSYAFFVQTCREEHKKKHPDASVNFSEFSKKCSERWKTMSAKEKGKFEDMAKADKARYEREMKTYIPPKGETKKKFKDPNAPKRPPSAFFLFCSEYRPKIKGEHPGLSIGDVAKKLGEMWNNTAADDKQPYEKKAAKLKEKYEKDIAAYRAKGKPDAAKKGVVKAEKSKKKKEEEEDEEDEEDEEEEEDEEDEDEEEDDDDE
In the case of B1, the “caspase-1 activity” value [2] is reported as “activation of caspase-1”.

From patent US11559536B2, “Compositions and methods for the treatment of inflammation in urological pathology” (Duke University, priority 2019, dated 2023)
